The target in one series is T1, human CRF1 receptor (Homo sapiens, UniProt P34998).
T1 construct: expressed in transfected cells; host or cells: CHO cells (membrane fraction)
T1 sequence (P34998 24-415): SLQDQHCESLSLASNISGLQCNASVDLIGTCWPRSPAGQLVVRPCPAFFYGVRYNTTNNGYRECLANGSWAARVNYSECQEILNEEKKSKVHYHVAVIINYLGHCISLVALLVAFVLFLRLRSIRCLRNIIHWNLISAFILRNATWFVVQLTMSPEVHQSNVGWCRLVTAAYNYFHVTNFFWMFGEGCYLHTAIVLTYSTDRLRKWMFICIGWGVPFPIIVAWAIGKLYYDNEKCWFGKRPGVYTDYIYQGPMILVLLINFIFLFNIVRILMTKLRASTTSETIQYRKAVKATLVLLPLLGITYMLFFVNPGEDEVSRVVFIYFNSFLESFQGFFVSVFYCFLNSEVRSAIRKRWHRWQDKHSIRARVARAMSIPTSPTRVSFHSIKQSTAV
The series can be described thus: Measurement of CRF Binding Inhibitory Rate (receptor binding experiment with 125I-CRF). As to conditions: human CRF1 receptor expressing CHO cellular membrane fraction, 50 pM 125I-CRF, room temperature 1.5 hr, 0.05 nM to 10 μM of compound; read-out: IC50 values (CRF binding inhibition).

A word on the melting point: it is the temperature, or range, at which the solid turns liquid. As a reminder, the IC50 is the concentration needed to halve the response being measured. `COc1nc(C)c(N2CCCn3c2nc2c(Cl)ccc(C(O)(C4CC4)C4CC4)c23)c(C)n1` [Example 188, [9-Chloro-1-(2-methoxy-4,6-dimethylpyrimidin-5-yl)-1,2,3,4-tetrahydropyrimido[1,2-a]benzimidazol-6-yl](dicyclopropyl)methanol]: the melting point lay in the range of 220 to 221 °C. Besides, on human CRF1 receptor, the 50% inhibitory concentration (IC50) was below 1 µM.

Take `COc1nc(C)c(N2CCCn3c2nc2c(Cl)ccc(C(OCC(F)(F)F)C4CC4)c23)c(C)n1` (centres unmarked) [Example 189, 9-Chloro-6-[cyclopropyl(2,2,2-trifluoroethoxy)methyl]-1-(2-methoxy-4,6-dimethylpyrimidin-5-yl)-1,2,3,4-tetrahydropyrimido[1,2-a]benzimidazole]: the melting point lay in the range of 225 to 227 °C. Further, the IC50 at human CRF1 receptor is below 1 µM.

Regarding `CC/C(=N\OC(F)F)c1ccc(Cl)c2nc3n(c12)CCCN3c1c(C)nc(OC)nc1C` [Example 193, (1E)-1-[9-Chloro-1-(2-methoxy-4,6-dimethylpyrimidin-5-yl)-1,2,3,4-tetrahydropyrimido[1,2-a]benzimidazol-6-yl]propan-1-one O-(difluoromethyl)oxime], the melting point was in the range of 199 to 200 °C. Further, the IC50 on human CRF1 receptor is below 1 µM.

`CCc1cc(CC)n(-c2ccc(Cl)c3nc4n(c23)CCCN4c2ccc(Cl)cc2Cl)n1` [Example 197, 9-Chloro-1-(2,4-dichlorophenyl)-6-(3,5-diethyl-1H-pyrazol-1-yl)-1,2,3,4-tetrahydropyrimido[1,2-a]benzimidazole] returned a melting point of 185 to 187 °C. For the same molecule, on human CRF1 receptor, the IC50 is below 1 µM.

For the molecule `COC(c1cccc2nc3n(c12)CCCN3c1ccc(Cl)cc1Cl)C1CC1` (centres unmarked) [Example 200, 6-[Cyclopropyl(methoxy)methyl]-1-(2,4-dichlorophenyl)-1,2,3,4-tetrahydropyrimido[1,2-a]benzimidazole], the melting point was 118 to 119 °C. Moreover, the IC50 on human CRF1 receptor was below 1 µM.

`COC(c1cccc2nc3n(c12)CCCN3c1ccc(Cl)cc1Cl)C(F)(F)F` (centres unmarked) [Example 202, 1-(2,4-Dichlorophenyl)-6-(2,2,2-trifluoro-1-methoxyethyl)-1,2,3,4-tetrahydropyrimido[1,2-a]benzimidazole] returned a melting point of 164 to 165 °C. The concentration for half-maximal inhibition (IC50) on human CRF1 receptor was below 1 µM.

Consider `CCC(CC(N)=O)c1cccc2nc3n(c12)CCCN3c1ccc(Cl)cc1Cl` (centres unmarked) [Example 205, 3-[1-(2,4-Dichlorophenyl)-1,2,3,4-tetrahydropyrimido[1,2-a]benzimidazol-6-yl]pentanamide], for which the melting point fell in the range of 132 to 133 °C. Further, the IC50 at human CRF1 receptor was below 1 µM.

Regarding `CCOc1nc(C)c(N2CCCn3c2nc2c(Cl)ccc(C(OC(F)F)C(F)(F)F)c23)c(C)n1` (centres unmarked) [Example 210, 9-Chloro-6-[1-(difluoromethoxy)-2,2,2-trifluoroethyl]-1-(2-ethoxy-4,6-dimethylpyrimidin-5-yl)-1,2,3,4-tetrahydropyrimido[1,2-a]benzimidazole], the melting point was 218 to 220 °C. For the same molecule, the IC50 on human CRF1 receptor was below 1 µM.

Take `Cc1nc(OC(C)C)nc(C)c1N1CCCn2c1nc1c(Cl)ccc(C(OC(F)F)C(F)(F)F)c12` (centres unmarked) [Example 211, 9-Chloro-6-[1-(difluoromethoxy)-2,2,2-trifluoroethyl]-1-[4,6-dimethyl-2-(1-methylethoxy)pyrimidin-5-yl]-1,2,3,4-tetrahydropyrimido[1,2-a]benzimidazole]: the melting point lay in the range of 227 to 230 °C. The IC50 at human CRF1 receptor is below 1 µM.

For `Cc1nc(C(C)C)nc(C)c1N1CCCn2c1nc1c(Cl)ccc(C(OC(F)F)C(F)(F)F)c12` (centres unmarked) [Example 214, 9-Chloro-6-[1-(difluoromethoxy)-2,2,2-trifluoroethyl]-1-[4,6-dimethyl-2-(1-methylethyl)pyrimidin-5-yl]-1,2,3,4-tetrahydropyrimido[1,2-a]benzimidazole], the melting point fell in the range of 204 to 206 °C. For the same molecule, the IC50 at human CRF1 receptor was below 1 µM.

`Cc1nc(OC(F)F)nc(C)c1N1CCCn2c1nc1c(Cl)ccc(C(OC(F)F)C(F)(F)F)c12` (centres unmarked) [Example 216, 9-Chloro-1-[2-(difluoromethoxy)-4,6-dimethylpyrimidin-5-yl]-6-[1-(difluoromethoxy)-2,2,2-trifluoroethyl]-1,2,3,4-tetrahydropyrimido[1,2-a]benzimidazole] came in with a melting point of 165 to 166 °C. Further, on human CRF1 receptor, the half-inhibitory concentration (IC50) was below 1 µM.

`Cc1nc(C2CC2)nc(C)c1N1CCCn2c1nc1c(Cl)ccc(C(OC(F)F)C(F)(F)F)c12` (centres unmarked) [Example 218, 9-Chloro-1-(2-cyclopropyl-4,6-dimethylpyrimidin-5-yl)-6-[1-(difluoromethoxy)-2,2,2-trifluoroethyl]-1,2,3,4-tetrahydropyrimido[1,2-a]benzimidazole] displayed a melting point of 191 to 193 °C. Further, the IC50 on human CRF1 receptor is below 1 µM.

Molecule `CCC(c1ccc(Cl)c2nc3n(c12)CCCN3c1c(C)nc(OC)nc1C)C(F)F` (centres unmarked) [Example 222, 9-Chloro-6-[1-(difluoromethyl)propyl]-1-(2-methoxy-4,6-dimethylpyrimidin-5-yl)-1,2,3,4-tetrahydropyrimido[1,2-a]benzimidazole] displayed a melting point of 181 to 183 °C. Besides, the half-inhibitory concentration (IC50) at human CRF1 receptor is below 1 µM.

The molecule `CCC(CC)c1ccc(Cl)c2nc3n(c12)CCCCN3c1cc(C)cc2c1ncn2C` [Example 230, 10-Chloro-1-(1,6-dimethyl-1H-benzimidazol-4-yl)-7-(1-ethylpropyl)-2,3,4,5-tetrahydro-1H-[1,3]diazepino[1,2-a]benzimidazole] displayed a melting point of 259 to 260 °C. Further, the IC50 at human CRF1 receptor was below 1 µM.

Turning to `CCN(CC)c1cccc2nc3n(c12)CC(F)(F)CN3c1ccc(Cl)cc1Cl` [Example 231, 1-(2,4-Dichlorophenyl)-N,N-diethyl-3,3-difluoro-1,2,3,4-tetrahydropyrimido[1,2-a]benzimidazol-6-amine], the melting point was in the range of 125 to 127 °C. Further, the IC50 on human CRF1 receptor was below 1 µM.

With `CCCC(O)(CCC)c1ccc(Cl)c2nc3n(c12)CCCN3c1ccc(Cl)cc1Cl` [Example 233, 4-[9-Chloro-1-(2,4-dichlorophenyl)-1,2,3,4-tetrahydropyrimido[1,2-a]benzimidazol-6-yl]heptan-4-ol], the melting point lay within 133 to 135 °C. Also, the 50% inhibitory concentration (IC50) on human CRF1 receptor is below 1 µM.

For `COC(c1ccc(Cl)c2nc3n(c12)CCCN3c1ccc(Cl)cc1Cl)C(C)C` (centres unmarked) [Example 235, 9-Chloro-1-(2,4-dichlorophenyl)-6-(1-methoxy-2-methylpropyl)-1,2,3,4-tetrahydropyrimido[1,2-a]benzimidazole], the melting point is 162 to 164 °C. Besides, on human CRF1 receptor, the IC50 is below 1 µM.

As to `CCC(OCC1CC1)c1ccc(Cl)c2nc3n(c12)CCCN3c1ccc(Cl)cc1Cl` (centres unmarked) [Example 236, 9-Chloro-6-[1-(cyclopropylmethoxy)propyl]-1-(2,4-dichlorophenyl)-1,2,3,4-tetrahydropyrimido[1,2-a]benzimidazole], the melting point is 159 to 160 °C. The IC50 on human CRF1 receptor is below 1 µM.

In turn, `CCC(=O)OC(CC)c1ccc(Cl)c2nc3n(c12)CCCN3c1ccc(Cl)cc1Cl` (centres unmarked) [Example 241, 1-[9-Chloro-1-(2,4-dichlorophenyl)-1,2,3,4-tetrahydropyrimido[1,2-a]benzimidazol-6-yl]propyl propanoate] yielded a melting point of 133 to 135 °C. The IC50 at human CRF1 receptor is below 1 µM.

Regarding `CC(=O)OC(C)c1ccc(Cl)c2nc3n(c12)CCCN3c1ccc(Cl)cc1Cl` (centres unmarked) [Example 243, 1-[9-Chloro-1-(2,4-dichlorophenyl)-1,2,3,4-tetrahydropyrimido[1,2-a]benzimidazol-6-yl]ethyl acetate], the melting point is 204 to 206 °C. The half-maximal inhibitory concentration (IC50) on human CRF1 receptor is below 1 µM.

On to `CC(=O)OC(c1ccc(Cl)c2nc3n(c12)CCCN3c1ccc(Cl)cc1Cl)C1CC1` (centres unmarked) [Example 244, [9-Chloro-1-(2,4-dichlorophenyl)-1,2,3,4-tetrahydropyrimido[1,2-a]benzimidazol-6-yl](cyclopropyl)methyl acetate], for which the melting point fell in the range of 208 to 210 °C. For the same molecule, on human CRF1 receptor, the half-inhibitory concentration (IC50) was below 1 µM.

Regarding `CCC(OC(C)=O)c1ccc(Cl)c2nc3n(c12)CCCN3c1ccc(C(C)=O)cc1Cl` (centres unmarked) [Example 250, 1-[1-(4-Acetyl-2-chlorophenyl)-9-chloro-1,2,3,4-tetrahydropyrimido[1,2-a]benzimidazol-6-yl]propyl acetate], the melting point was in the range of 183 to 186 °C. Moreover, the IC50 at human CRF1 receptor was below 1 µM.

Turning to `CCC(OC(C)=O)c1ccc(Cl)c2nc3n(c12)CCCN3c1ccc(C(C)(C)O)cc1Cl` (centres unmarked) [Example 252, 1-{9-Chloro-1-[2-chloro-4-(1-hydroxy-1-methylethyl)phenyl]-1,2,3,4-tetrahydropyrimido[1,2-a]benzimidazol-6-yl}propyl acetate], the melting point fell in the range of 184 to 186 °C. On human CRF1 receptor, the concentration for half-maximal inhibition (IC50) is below 1 µM.

As to `CCC(OC(C)=O)c1ccc(Cl)c2nc3n(c12)CCCN3c1ccc(OC)cc1Cl` (centres unmarked) [Example 260, 1-[9-Chloro-1-(2-chloro-4-methoxyphenyl)-1,2,3,4-tetrahydropyrimido[1,2-a]benzimidazol-6-yl]propyl acetate], the melting point fell in the range of 178 to 180 °C. In addition, at human CRF1 receptor, the half-inhibitory concentration (IC50) was below 1 µM.

Turning to `CCC(OC(=O)C1CC1)c1ccc(Cl)c2nc3n(c12)CCCN3c1ccc(OC)nc1C` (centres unmarked) [Example 268, 1-[9-Chloro-1-(6-methoxy-2-methylpyridin-3-yl)-1,2,3,4-tetrahydropyrimido[1,2-a]benzimidazol-6-yl]propyl cyclopropanecarboxylate], the melting point lay in the range of 149 to 151 °C. Also, the half-inhibitory concentration (IC50) at human CRF1 receptor was below 1 µM.

The record behind these values is patent US8785460B2, “Tricyclic compounds and use thereof” (Takeda Pharmaceutical Company Limited, priority 2008, dated 2014).
